Measurements taken from patent US5582813A, “Iodine-containing fluorocarbon contrast agents” (Alliance Pharmaceutical Corp., priority 1993, dated 1996).

What was measured:
[1] = In vitro opacity to X-rays of compounds in hexane solution (Philips Tomoscan LX); assay type: physicochemical; conditions: 0.34 mol/L in hexane; 120 kV, 175 mA
Method: In order to determine the relative radiopacity of the compounds used in the present invention to X-rays, we undertook an in vitro study to compare the radiopacity of the above compound (IA) in relation to the radiopacity of perfluorooctyl bromide.
A solution of Compound IA was prepared having a concentration of 0.34 mol/L in hexane. A second solution of perfluorooctyl bromide (PFOB) with the same concentration in hexane was also prepared. The opacity to X-rays of the respective compounds in the hexane solutions was determined using a Philips Tomoscan LX 120 kV, 175 mA apparatus.
Following the procedure described in Example 1, we also measured the opacity to X-rays of Compound IIIA. As described, a solution of Compound IIIA was prepared at a concentration of 0.34 mol/L in hexane.
We also measured the radiopacity of each of the compositions using the in vitro test described in Example 1, where 0.34 mol/L solutions of the compositions were prepared in hexane and scanned using a Philips Tomoscan LX 120 kV, 175 mA apparatus.

[2] = tested on: mice; test: Toxicity, intraperitoneal injection in mice; assay type: in vivo; conditions: 10 mice, about 45 g/kg, one month
Text: (§1) Beyond radiopacity and stability, the compounds used in the present invention are biocompatible. They are tolerated in high doses in animals. For example, in intraperitoneal administration in mice, the mice were still alive at the end of the protocol, one month post injection, even after doses of up to 45 g/kg of the iodinated fluorinated compounds used in the present invention had been injected. Further, in intravenous administration to mice of the compounds used in the present invention in emulsified form, the mice lived past the end of the protocol, one month post injection of doses up to 8 g/kg.
(§2) In order to determine the toxicity of Compound IA, we injected mice intraperitoneally with the compound. In the experiment, 10 mice were interperitoneally injected with a dose of about 45 g/kg per animal of Compound IA.
(§3) Compound IIIA was also tested for toxicity, following the procedure described in Example 2. A similar tolerance of greater than 45 g/kg animal weight was observed.
(§4) Each of the composition were intraperitoneally injected into mice at doses of 50 g/kg. All of the mice so injected survived and were alive past the end of the protocol, 30 days post injection.

[3] = tested on: liver; test: In vivo radiopacity, rabbit liver imaging; set-up: species or system rabbits; conditions: 0.39 g of Compound IA
Method: In order to determine the ability of the compositions of the present invention to operate as effective contrast enhancement agents, we undertook an in vivo study in rabbits to image their livers.
In the study, 3 rabbits were injected with the emulsion of Example 5 at a dose of 3 mL of emulsion per kg of animal, i.e., 2.34 g/kg (4.2 mM of Compound IA), at the rate of 0.5 mL/min.
The radiopacity of the liver and spleen of each rabbit was then measured. The animals were held in a cage and radiopacity was measured using a Philips Tomoscan LX scanner at 120 kV and 175 mA, with continuous 5 mm scans slice with 7 mm intervals. The duration of each scan was 1.2 seconds. These measurements were taken before the injection, then at 24 hours, 48 hours, 7 days, 15 days, and 30 days after the injection.
The results from this study are shown in FIG. 2, which is a bar graph showing the comparison between the radiopacity of the liver (as determined by the increase in Hounsfield units) observed with the emulsion of Example 5 and a PFOB emulsion (Example 6), at 24 hours and 48 hours after injection. The concentration of the emulsion of Example 5 was at a dose of […]. The concentration of the PFOB emulsion was at a dose of 2.7 g/kg body weight (5.4 mM of Perflubron/kg).

[4] = Toxicity, intraperitoneal injection in mice; assay type: in vivo; conditions: mouse, in vivo, ip; mice, intraperitoneal, g/kg animal weight; read-out: tolerance
Text: as §1, §2, §3, §4

Structure (SMILES)	radiopacity relative to PFOB [1]	survival after intraperitoneal injection [2]	amount of Perflubron giving equivalent contrast enhancement, relative to Compound IA [3] [times]	opacity to X-rays (in words) [1]	MTD [4] [mg/kg]
CCCCCCC(I)=CC(F)(F)C(F)(F)C(F)(F)C(F)(F)C(F)(F)C(F)(F)F [Compound IA, C6 F13 --CH=CI--C6 H13]	approximately four	all animals survived and were thriving, showing no ill effects	7	–	–
CCCCCCC(I)=CC(F)(F)C(F)(F)C(F)(F)C(F)(F)C(F)(F)C(F)(F)C(F)(F)C(F)(F)F [Compound IIIA, C8 F17 --CH=CI--C6 H13]	–	–	–	A similar opacity was observed for Compound IIIA as was observed for Compound IA	> 45000
